Test results: patent publication US20220324803A1 (Teon Therapeutics, Inc., priority 2019, published 2022)

Experiments:
[1] = system: aberrant crypt foci and intestinal polyps; conditions: mouse disease model; Mutoh et al. 2002; cited from earlier work
[2] = system: human inflammatory breast cancer cells; conditions: Robertson et al. 2008; cited from earlier work
[3] = system: castration-resistant prostate cancer; conditions: mouse xenograft disease model; Terada et al. 2010; cited from earlier work
[4] = system: murine mammary tumour cells; conditions: mouse, in vivo; cited from earlier work
[5] = target: T1, human Prostanoid EP4 Receptor (EP4) (Homo sapiens, UniProt P35408); assay: Prostanoid EP4 binding assay (3H-prostaglandin E2 displacement, cell membranes); conditions: HEK293 cell membranes with human EP4, 3H-prostaglandin E2, 24° C.
T1 construct: expressed in transfected cells; host or cells: HEK293 (G418 selection); membranes prepared by differential centrifugation

[6] = target: T1, human Prostanoid EP4 Receptor (EP4); assay: Prostanoid EP4 FLIPR assay (calcium flux, PGE2 addition); format: cell-based; conditions: HEK293 cells transfected with human EP4, Fluo-4 calcium dye
Description: (§1) HEK293 cells transfected with human Prostanoid EP4 Receptor (EP4) or CHO cells transfected with human Prostanoid EP2 Receptor (EP2) are maintained in DMEM supplemented with L-Glutamine, 10% FBS and 300 μg/ml G418. Cells are plated at 20,000 cells/well in black 384-well Poly-D-Lysine protein coating plate and incubated at 37° C., 5% CO2 for 24 h. Prior to the assay, calcium-sensitive dye Fluo-4 Direct™ (Molecular Devices) is reconstituted according to manufacturer instructions. The reconstituted dye was diluted in assay buffer (1× HBSS, 20 mM HEPES, and 2.5 mM Probenicid, pH 7.4). Growth media is removed and 20 μl of this diluted dye is added to each well at a final concentration of 2 μM. Plates are incubated for 50 min at 37° C. 5% C02 and 10 min at RT after dye addition. Testing compounds are diluted with DMSO to make 10-point 4-fold serial dilution. After the pre-treatment incubation, fluorescence intensity is measured on a FlexStation II fluorometric imaging plate reader (Molecular Devices). Relative fluorescence units (RFU) are measured before (20 readings) and after (40 readings) the PGE2 addition for a total 60 sec read time (Excitation=485 nm, Emission=525 nm). Data are analyzed and IC50 is calculated using GraphPad Prism 5 and the model “log(inhibitor) vs. response—Variable slope”.
(§2) Illustrative data for representative compounds are described in Table 2.

[7] = target: T2, human Prostanoid EP2 Receptor (EP2) (Homo sapiens, UniProt P43116); assay: Prostanoid EP2 FLIPR assay (calcium flux, PGE2 addition); format: cell-based; conditions: CHO cells transfected with human EP2, Fluo-4 calcium dye
T2 construct: expressed in transfected cells; host or cells: CHO (G418 selection)
Description: as §1, §2

[8] = system: human NSCLC; conditions: in vitro; cited from earlier work

T1 sequence (P35408 whole entry): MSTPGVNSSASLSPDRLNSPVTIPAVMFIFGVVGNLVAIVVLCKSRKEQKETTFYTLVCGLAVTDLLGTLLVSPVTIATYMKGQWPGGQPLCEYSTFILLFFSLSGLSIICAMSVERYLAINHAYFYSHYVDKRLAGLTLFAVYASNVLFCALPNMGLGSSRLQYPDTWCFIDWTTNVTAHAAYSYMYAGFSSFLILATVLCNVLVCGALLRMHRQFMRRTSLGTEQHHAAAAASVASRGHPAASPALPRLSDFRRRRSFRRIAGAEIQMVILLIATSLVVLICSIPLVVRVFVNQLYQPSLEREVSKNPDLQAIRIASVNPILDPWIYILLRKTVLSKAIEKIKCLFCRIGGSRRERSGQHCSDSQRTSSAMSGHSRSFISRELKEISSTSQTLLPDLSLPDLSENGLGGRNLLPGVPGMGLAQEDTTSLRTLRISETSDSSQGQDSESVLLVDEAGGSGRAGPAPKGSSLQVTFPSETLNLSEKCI
T2 sequence (P43116 whole entry): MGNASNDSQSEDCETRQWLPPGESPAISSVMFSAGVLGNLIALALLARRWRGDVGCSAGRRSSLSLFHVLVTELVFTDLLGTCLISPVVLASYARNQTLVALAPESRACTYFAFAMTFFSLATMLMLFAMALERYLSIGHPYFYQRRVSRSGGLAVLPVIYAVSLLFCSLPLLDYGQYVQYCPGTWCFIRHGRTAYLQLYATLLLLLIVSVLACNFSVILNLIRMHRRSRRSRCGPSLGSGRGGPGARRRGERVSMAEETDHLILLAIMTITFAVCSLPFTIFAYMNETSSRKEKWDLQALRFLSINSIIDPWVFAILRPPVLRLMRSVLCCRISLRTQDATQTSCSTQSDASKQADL

| Ki [5] | IC50 [6] | IC50 [7] | Structure (SMILES) | metastasis of murine mammary tumour cells [4] | further results |
| --- | --- | --- | --- | --- | --- |
|  |  |  | CC(C(=O)Nc1ccccc1Cc1ccccc1C(=O)O)c1cccc2ccccc12 (stereo not drawn) [ONO-AE2-227] |  | formation of aberrant crypt foci and intestinal polyps [1]: reduced the formation of aberrant crypt foci and intestinal polyps |
|  |  |  | CCOc1c2c(c(OCC)c3ccccc13)C(=O)N(c1ccc(CC(=O)NS(=O)(=O)c3ccccc3)cc1)C2 [GW-627368X] |  | proliferation and invasion of human inflammatory breast cancer cells [2]: selectively inhibited both proliferation and invasion |
|  |  |  | CC(C(=O)Nc1cc(C#N)ccc1CCCC(=O)O)c1ccc(F)c2ccccc12 (stereo not drawn) [ONO-AE3-208] | reduced metastasis | castration-resistant prostate cancer progression [3]: suppressed castration-resistant prostate cancer progression |
| 100 to 499 nM | 100 to 499 nM | > 1000 nM | O=C(N[C@H]1CC2(C1)C[C@H](C(=O)O)C2)c1cnn2cccc(Cc3ccc(C(F)(F)F)cc3)c12 (single isomer, unassigned) [Compound 14A, cis-6-[[4-[[4-(trifluoromethyl)phenyl]methyl]pyrazolo[1,5-a]pyridine-3-carbonyl]amino]spiro[3.3]heptane-2-carboxylic acid] |  |  |
|  |  |  | O=C(O)CC/C=C\CC[C@H]1[C@H](N2CCOCC2)C(=O)C[C@H]1OCc1ccc(-c2ccccc2)cc1 [AH-23848] | reduced metastasis | tumorigenic effects of PGE2 on human NSCLC growth [8]: successfully inhibited |
| < 100 nM | < 100 nM | > 1000 nM | C[C@H](NC(=O)c1n[nH]c2cccc(Cc3ccc(C(F)(F)F)cc3)c12)c1ccc(C(=O)O)cc1 [Compound 7, 4-[(1S)-1-[[4-[[4-(trifluoromethyl)phenyl]methyl]-1H-indazole-3-carbonyl]amino]ethyl]benzoic acid] |  |  |
